Assay results taken from patent publication US20030124571A1, “Novel human septin and uses therefor” (The Government of the United States of America, priority 2000, published 2003).

Assays:
caspase 3 = assay: Caspase 3 fluorescent activity assay with aldehyde inhibitor, all cells examined; type: cell-based
Procedure: (§1) Cells were seeded to 50% confluence in six-well plates in media containing 10% fetal calf serum overnight. Following 24 hours after transfection, cells media was changed to contain 1% fetal calf serum with or without 10 ng/ml TGF-β for additional 24 hours. Cells were treated with caspase 3 aldehyde inhibitor (Ac-DEVD-CHO) supplied with caspase 3 fluorescent activity kit according to the manufacturers' protocols (Pharmingen, San-Diego, Calif.). Results were read using FL-600 microplate fluorescence reader (Bio-Tek).

NRP-154 cells [1] = assay: Thymidine incorporation assay, NRP-154 cells; type: cell-based, rat; conditions: 24 hr treatment with 10 ng/ml TGF-β1
Procedure: (§2) M-NRP1 and NRP-154 cells were plated at 1×10^5 cells per well in 24 well plates and allowed to attach overnight. Incorporation of (^3H)-thymidine was measured by adding radioactivity for 3 hours, 24 hours after addition of control or 10 ng/ml TGF-β1. Plates were counted on a Packard Top Count. Parallel plates (e.g., those treated in an identical manner) were harvested by trypinization for counting in a Coulter Counter.

M-NRP1 cells [2] = assay: Thymidine incorporation assay, M-NRP1 cells; type: cell-based, rat; conditions: 24 hr treatment with 10 ng/ml TGF-β1
Procedure: as §2

M-NRP1 cells [3] = assay: Apoptosis (DNA laddering, morphology), M-NRP1 cells; type: cell-based, rat; conditions: 24 hours; 10 ng/ml TGF-β, okadaic acid 30 nM, staurosporine 2 nM
Procedure: 2×10^5 M-NRP1 cells or NRP-154 cells were plated in 6-well dishes. After 24 hours, 2 ml DMEM/F12 containing 15 mM HEPES, 1% calf serum, and 0.1 μM dexamethasone were added to the plates. The cells were cultured at 37° C. for 24 hours and then detached by trypsinization.
Internucleosomal DNA ladders were detected with a modification (described below) of TACS apoptotic DNA ladder kit (Trevigen, Githersburg, Md.). Briefly, the detached cells were centrifuged at 600×g to form cell pellets. The cell pellets were then resuspended in 25 μl PBS and lysed by the addition of 25 μl of lysis buffer. DNA was purified from the mixture as directed by Trevigen.
The nicked ends of the DNA were ^32P-labeled by incubating 1 μg of DNA with 2.5 units of Klenow fragment of DNA Poll in the presence of 0.5 μCi of (α-^32P) dCTP (3 Ci/mmol, Dupont NEN, Boston, Mass.) for 30 min at room temperature in a 10 μl reaction volume containing 5 mM MgCl2 and 10 mM Tris-HCl (pH 7.5). One third of the labeled DNA was electrophoresed through 1.8% agarose-1×TAE at 70 V for 2 hours. Gels were dried and exposed to X-Omat AR (Kodak, Rochester, N.Y.) for about 1 hour.
Staurosporine and okadaic acid (Upstate Biotechnology Incorporated, Lake Placid, N.Y.) were dissolved in dimethyl sulfoxide (DMSO) and diluted to a final concentration of 2 nM and […], respectively, in 0.01% DMSO.
NRP-154 and M-NRP1 cells were treated with a control (i.e., the identical solution without the agent of interest) or with 10 ng/ml TGF-β, okadaic acid (30 nM) or staurosporine (2 nM) for 24 hours. Apoptosis was determined by DNA laddering, essentially as described in Example VA, above.

[4] = system: cyclin A promoter construct (pCAL2) in NRP-154 cells; assay: Cyclin A promoter construct pCAL2-luc luciferase assay, NRP-154 cells; type: cell-based, rat; conditions: 24 hours of treatment with 10 ng/ml TGF-β
Procedure: (§3) M-NRP1 and NRP-154 cells were cultured in 10% fetal bovine serum as described by Chaudhary et al., (1998) J. Biol. Chem. 273: 17708-17712) and exposed to 10 ng/ml TGF-β1 for 24 hours.
(§4) M-NRP1 cells were transiently transfected with pCal-luc (a pCAL2 reporter construct described by Keeton et al., (1991) J. Biol. Chem. 266: 23048-23052) using the Lipofectamine (Gibco BRL Life Technologies, Gaithersburg, Md.) transfection reagent.
(§5) Activity of the transiently transfected cyclin A promoter construct, pCal2-luc, was assessed by a luciferase assay and measured using a luminometer. The basal activity (e.g., without TGF-β treatment) of pCAL2 was similar in MNRP-1 and NRP-154 cells.

[5] = system: cyclin A promoter construct (pCAL2) in M-NRP1 cells; assay: Cyclin A promoter construct pCAL2-luc luciferase assay, M-NRP1 cells; type: cell-based, rat; conditions: 24 hours of exposure to 10 ng/ml TGF-β
Procedure: as §3, §4, §5

NRP-154 cells [6] = assay: TUNEL assay, NRP-154 cells; type: cell-based, rat; conditions: 10 ng/ml TGF-β, 24 hours
Procedure: (§6) TUNEL assays were performed using the TACS In Situ Apoptosis Detection Kit (Trevigen). Briefly, NRP-154 and M-NRP1 cells were plated at 8×10^4 cells/ml in a 96 well plate and allowed to attach overnight. Cells were then treated with either 10 ng/ml TGF-β (R&D Systems, Inc., Minneapolis, Minn.), or control (i.e., the identical solution without TGF-β) for 24 hours, fixed with formaldehyde and analyzed for stained nuclei according to the manufacturer's instructions.

M-NRP1 cells [7] = assay: TUNEL assay, M-NRP1 cells; type: cell-based, rat; conditions: 10 ng/ml TGF-β, 24 hours
Procedure: as §6

[8] = system: caspase 3 in NRP-154 cells; assay: Caspase 3 fluorescent activity assay, NRP-154 cells; type: cell-based, rat; conditions: 10 ng/ml TGF-β 24 hours
Procedure: as §1

COS cells [9] = assay: TUNEL assay of transfected COS cells; type: cell-based, monkey; conditions: 10 ng/ml TGF-β for 24 hours
Procedure: COS cells were cultured as previously described (Section E, above). […] When these cells are transfected with ARTS and treatment with TGF-β they are induced to cell death.
COS cells were then transfected with control vector or wildtype ARTS, essentially as described above, and treated with 10 ng/ml TGF-β for 24 hours.
The apoptotic response of COS cells to TGF-β was assessed by a TUNEL assay ([…], now Roche, Indianapolis, Ind.) following the manufacturer's instructions.
COS cells were cultured and transfected, as described above, with equal concentrations of either pcDNA3 control vector, ARTS or M-ARTS-pcDNA3 using the Lipofectamine transfection reagent (Gibco BRL Life Technologies, Gaithersburg, Md.). The cells were treated with 1 o ng/ml TGF-β for 24 hours.
Apoptosis was examined in a TUNEL assay (Boehringer-Mannheim), according to the manufacturer's instructions.

NRP-154 cells [10] = conditions: 48-72 hours exposure to 10 ng/ml TGF-β; cited from earlier work
COS cells [11] = assay: Apoptosis (nuclear fragmentation, immunofluorescence) of COS cells transfected with ARTS constructs; type: cell-based, monkey
Procedure: A C-terminal deletion construct lacking the last 24 amino acids of the ARTS protein was constructed and its apoptotic activity in COS cells was examined. […] Thus, the truncated construct is both more rapid in translocating to the nucleus and in inducing apoptosis in response to TGF-β.
COS cells were cultured as desribed previously (Section E, above) and cotransfected with either empty empty AU5 vector (based on pcDNA3 vectors provided by Dr. Silvio Gukind) or ARTS-AU5 with X-vector. ARTS-AU5 was prepared as desribed above. X-vector is a general term to describe any other vector which was cotransfected together with ARTS to asses its effect on ARTS activity.
24 hours after transfection, cell media was changed to contain 1% fetal calf serum with or without 10 ng/ml TGF-β and the cells were incubated for another 24 hours. The cells were then washed twice with PBS and fixed with 4% paraformaldehyde in PBS. Cells were blocked with 5% BSA in PBS for 30 minutes, then incubated with anti-AU5 fluroescein antibodies (Babco, Richmond, Calif.). The cells were also counterstained with DAPI for counting of fragmented nuclei.

caspase 3 in COS cells = assay: Caspase 3 fluorescent activity assay, COS cells; type: cell-based, monkey; conditions: overexpression of construct, following treatment with TGF-β
Procedure: as §1

caspase 3 in A549 cells = assay: Caspase 3 fluorescent activity assay, A549 cells; type: cell-based, human; conditions: overexpression of ARTS, following TGF-β treatment
Procedure: as §1

[12] = system: 3TP-Lux promoter construct in NRP-154 cells; assay: p3TP-Lux reporter luciferase assay with ARTS cotransfection, NRP-154 cells; type: cell-based, rat; conditions: 10 ng/ml TGF-β 24 hours
Procedure: (§7) NRP-154 and FaO cells were seeded to 50% confluence in six-well plates in DMEM-F12 or DMEM, respectively, containing 10% fetal calf serum overnight.
(§8) Antisense- and sense-ARTS were generated by PCR using ARTS cDNA containing the 5′UTR of ARTS as a template. The PCR fragments were subcloned into the Bam H1-Eco R1 sites of pcDNA3 vector containing the Pcmv promotor (invitrogen, Carlsbad, Calif.).
(§9) NRP-154 cells and FaO cells were transfected with lug/sample p3TP-Lux reporter (a gift from Dr. Joan Massague), which contains 3 repeats of an AP-1 site from the collagenase promoter linked to a short region of the PAI-1 promoter along with equal concentrations of either pcDNA3 control vector (PGL2 vector commercially available from Promega, Madison, Wis.) or the ARTS-pcDNA3 construct, described above.
(§10) The cells were then treated with 10 ng/ml TGF-β for 24 hours.
(§11) After 24 hours, a cell lysate was prepared essentially as described in Part C, above.
(§12) Luciferase activity was determined in the cell lysate using an assay kit (BD Pharmingen, San Diego, Calif.), and a MLX Microtiter plate luminometer (Dynex Technologies, Chantilly, Va.). […]
(§13) Experiments were repeated three times with similar results. The results are expressed as the mean (±SEM) of duplicate luciferase assay, corrected for transfection efficiency.

[13] = system: 3TP-Lux promoter construct in FaO rat hepatoma cells; assay: p3TP-Lux reporter luciferase assay with ARTS cotransfection, FaO cells; type: cell-based; conditions: 10 ng/ml TGF-β 24 hours
Procedure: as §7, §8, §9, §10, §11, §12, §13

M-NRP1 cells [14] = assay: Annexin-V apoptosis of GFP-sorted transfected M-NRP1 cells; type: cell-based, rat; conditions: M-NRP1 cells transfected with wildtype ARTS, 10 ng/ml TGF-β 24 hours
Procedure: (§14) Cells were seeded to 50% confluence in six-well plates in DMEM-F12 containing 10% fetal calf serum overnight.
(§15) ARTS whole cDNA in PCMV-sport vector was isolated from a human fetal cDNA library in the pcmv-sport vector (Gibco BRL Life Technologies). This vector is different from AU5 tagged vector.
(§16) The NRP-154 and M-NRP1 cells were cotransfected with a total of 2 μDNA, 1 μg ARTS-pcmv-sport and 1 μg a GFP vector (Clontech, Palo-Alto, Calif.), a marker for transfected cells, using Lipofectamine (Gibco BRL Life Technologies, Gaithersburg, Md.) or FuGENE 6 (Boehringer-Mannheim) according to the manufacturer's protocol.
(§17) After 24 hours, cells media was changed to contain 1% fetal calf serum with or without 10 ng/ml TGF-β for an additional 24 hours.
(§18) GFP-positive cells were sorted using FACS.
(§19) The sorted population was stained with streptavidin-sulforhodamin.
(§20) The number of apoptotic cells was measured using the TACS Annexin-V-biotin (Trevigen, Gaithersburg, Md.).

NRP-154 cells [15] = assay: Annexin-V apoptosis of GFP-sorted transfected NRP-154 cells; type: cell-based, rat; conditions: NRP-154 cells overexpressing ARTS
Procedure: as §14, §15, §16, §17, §18, §19, §20

Molecule: Ac-DEVD-CHO
- TGF-β induced caspase activity (caspase 3): inbitited the TGF-β induced caspase activity

Molecule: TGF-β: recombinant human TGF-β1 (R&D Systems), transforming growth factor-β
- (3H)-thymidine uptake inhibited (NRP-154 cells [1]): greater than 80%
- (3H)-thymidine uptake stimulated (M-NRP1 cells [2]): 14%
- apoptosis (M-NRP1 cells [3]): resistant to apoptosis
- pCAL2 activity [4]: strong decrease
- activity of the pCal-luc reporter [5]: unaffected
- TUNEL staining of nuclei (NRP-154 cells [6]): strong TUNEL staining of apoptotic nuclei
- TUNEL staining of nuclei (M-NRP1 cells [7]): most nuclei from M-NRP1 cells remained intact
- caspase 3 activity [8]: caspase 3 was activated
- apoptosis (TUNEL) (COS cells [9]; COS cells transfected with control vector): did not undergo apoptosis
- cell death (NRP-154 cells [10]): over 80%

B1: ARTS: Apoptosis Related protein in the TGF-β Signaling pathway; 274 amino acid human septin, SEQ. ID. NO: 2, expressed by transfection (protein, listed as Homo sapiens)
chain: MIKRFLEDTTDDGELSKFVKDFSGNASCHPPEAKTWASRPQVPEPRPQAPDLYDDDLEFRPPSRPQSSDNQQYFCAPAPLSPSARPRSPWGKLDPYDSSEDDKEYVGFATLPNQVHRKSVKKGFDFTLMVAGESGLGKSTLVNSLFLTDLYRDRKLLGAEERIMQTVEITKHAVDIEEKGVRLRLTIVDTPGFGDAVNNTECWKPVAEYIDQQFEQYFRDESGLNRKNIQDNRVHCCLYFISPFGHGYGPSLRLLAPPGAVKGTGQEHQGQGCH
notes: Apoptosis Related protein in the TGF-β Signaling pathway; ID; NO: 2, expressed by transfection
- percent transfected apoptotic cells (COS cells [11]; COS cells, within 1 hour of TGF-β treatment): 18%
- induction of apoptosis by overexpression alone (COS cells [11]; COS cells, without TGF-β): does not induce apoptosis
- induction of apoptosis in transfected cells (COS cells [11]; cells treated with TGF-β): increased basal level and TGF-β-induced level of apoptosis
- activation of caspase 3 (caspase 3 in COS cells): marked increase in the activation of caspase 3
- caspase 3 activity (caspase 3 in A549 cells): marked increase in caspase 3 activity
- caspase 3 activity [8]: no further effect
- basal and TGF-β-induced luciferase activity (3TP-Lux) [12]: increased
- basal and TGF-β-induced luciferase activity (3TP-Lux) [13]: increased
- sensitivity to TGF-β induced apoptosis (M-NRP1 cells [14]): restored, in part, the sensitivity
- TUNEL staining / competence to undergo apoptosis (COS cells [9]; transfected COS cells): strong TUNEL staining
- effect on TGF-β induced apoptosis (NRP-154 cells [15]): lack of effect
